One may read the IC50 as the point on the concentration scale where inhibition reaches its midpoint. A low value points to higher potency.

Where a name gives a salt, the structure may show the parent alone.

Common to all, as to experiment: automated whole-cell patch clamp (PatchXpress), peak current
Holding throughout (format): cell-based

The target in one assay is T1, Kv 1.2 (Homo sapiens, UniProt P16389).
T1 construct: gene KCNA2; cDNA stably transfected in HEK293 cells; expressed alone (homotetramer)
The text has this: automated whole-cell patch clamp (PatchXpress), peak current on Kv 1.2

Another assay has as its target T2, Kv 1.4 (Homo sapiens, UniProt P22459).
T2 construct: gene KCNA4; cDNA stably transfected in HEK293 cells; expressed alone (homotetramer)
The text has this:
automated whole-cell patch clamp (PatchXpress), peak current on Kv 1.4

The target of the next assay is T3, Kv 1.1 (Homo sapiens, UniProt Q09470).
T3 construct: gene KCNA1; cDNA stably transfected in HEK293 cells; expressed alone (homotetramer)
An excerpt: automated whole-cell patch clamp (PatchXpress), peak current on Kv 1.1

T1 sequence (P16389 whole entry): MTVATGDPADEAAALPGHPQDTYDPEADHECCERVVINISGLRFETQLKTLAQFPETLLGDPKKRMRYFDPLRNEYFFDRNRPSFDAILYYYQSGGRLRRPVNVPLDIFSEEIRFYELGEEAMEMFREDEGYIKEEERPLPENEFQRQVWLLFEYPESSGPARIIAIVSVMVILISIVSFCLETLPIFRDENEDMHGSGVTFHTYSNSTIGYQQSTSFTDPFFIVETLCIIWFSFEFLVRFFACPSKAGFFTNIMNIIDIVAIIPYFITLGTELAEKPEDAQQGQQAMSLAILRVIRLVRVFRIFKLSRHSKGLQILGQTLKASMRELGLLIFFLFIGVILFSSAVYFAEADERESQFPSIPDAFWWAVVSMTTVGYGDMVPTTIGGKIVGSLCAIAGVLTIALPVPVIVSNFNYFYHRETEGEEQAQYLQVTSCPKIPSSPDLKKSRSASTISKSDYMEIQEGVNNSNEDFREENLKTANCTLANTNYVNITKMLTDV
T3 sequence (Q09470 whole entry): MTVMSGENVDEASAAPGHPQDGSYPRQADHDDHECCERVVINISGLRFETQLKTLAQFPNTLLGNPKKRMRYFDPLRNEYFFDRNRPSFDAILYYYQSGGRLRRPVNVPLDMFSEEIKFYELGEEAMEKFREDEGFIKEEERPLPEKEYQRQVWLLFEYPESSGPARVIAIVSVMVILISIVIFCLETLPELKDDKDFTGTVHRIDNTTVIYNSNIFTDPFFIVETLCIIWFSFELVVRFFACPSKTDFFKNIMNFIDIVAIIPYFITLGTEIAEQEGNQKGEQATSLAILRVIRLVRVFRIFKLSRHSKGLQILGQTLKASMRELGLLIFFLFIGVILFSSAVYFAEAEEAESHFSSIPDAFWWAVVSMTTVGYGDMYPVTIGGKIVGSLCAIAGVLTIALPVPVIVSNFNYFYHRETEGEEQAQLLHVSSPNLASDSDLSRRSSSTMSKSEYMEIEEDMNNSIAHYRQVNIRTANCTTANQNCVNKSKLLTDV
T2 sequence (P22459 whole entry): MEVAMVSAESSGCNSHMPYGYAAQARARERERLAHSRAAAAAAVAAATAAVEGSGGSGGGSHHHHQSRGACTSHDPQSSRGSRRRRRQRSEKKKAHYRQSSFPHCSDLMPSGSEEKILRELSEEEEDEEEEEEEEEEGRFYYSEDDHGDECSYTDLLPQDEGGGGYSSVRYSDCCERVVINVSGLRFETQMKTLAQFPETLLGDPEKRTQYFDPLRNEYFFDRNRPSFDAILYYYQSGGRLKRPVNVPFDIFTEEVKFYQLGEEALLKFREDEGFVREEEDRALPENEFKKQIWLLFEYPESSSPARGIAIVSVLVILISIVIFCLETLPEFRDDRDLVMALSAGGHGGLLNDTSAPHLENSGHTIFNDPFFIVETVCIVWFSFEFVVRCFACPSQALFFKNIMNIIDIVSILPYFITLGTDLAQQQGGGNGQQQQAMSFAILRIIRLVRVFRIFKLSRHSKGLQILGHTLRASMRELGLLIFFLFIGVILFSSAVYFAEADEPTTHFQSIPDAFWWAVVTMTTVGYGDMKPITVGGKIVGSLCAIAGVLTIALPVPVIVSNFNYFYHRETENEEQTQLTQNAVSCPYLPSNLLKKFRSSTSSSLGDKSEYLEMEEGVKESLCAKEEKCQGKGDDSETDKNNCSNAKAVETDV

As for `Nc1ccncc1OS(=O)(=O)O` [3-hydroxy-4-aminopyridine sulfate], the figures for the half-maximal inhibitory concentration (IC50) on Kv 1.2, against Kv 1.4 and against Kv 1.1 were 21400 µM, over 50000 µM and 30300 µM, respectively.

In the case of `Nc1ccncc1O` [3-hydroxy-4-aminopyridine], the IC50 at Kv 1.2 was 23700 µM; against Kv 1.4, 23200 µM; on Kv 1.1 it was 7890 µM.

The values are drawn from paper PMC4937658, “Effects of dalfampridine and its metabolites on cloned human potassium channels Kv 1.1, Kv 1.2, and Kv 1.4 expressed in human embryonic kidney cells” (Journal of Drug Assessment, 2013).
